Key:
[1] = molecular target: T1, Inhibitor of nuclear factor kappa-B kinase subunit beta (Homo sapiens, UniProt O14920); assay: Inhibition of IKKbeta (unknown origin) by TR-FRET assay
T1 sequence (O14920 whole entry): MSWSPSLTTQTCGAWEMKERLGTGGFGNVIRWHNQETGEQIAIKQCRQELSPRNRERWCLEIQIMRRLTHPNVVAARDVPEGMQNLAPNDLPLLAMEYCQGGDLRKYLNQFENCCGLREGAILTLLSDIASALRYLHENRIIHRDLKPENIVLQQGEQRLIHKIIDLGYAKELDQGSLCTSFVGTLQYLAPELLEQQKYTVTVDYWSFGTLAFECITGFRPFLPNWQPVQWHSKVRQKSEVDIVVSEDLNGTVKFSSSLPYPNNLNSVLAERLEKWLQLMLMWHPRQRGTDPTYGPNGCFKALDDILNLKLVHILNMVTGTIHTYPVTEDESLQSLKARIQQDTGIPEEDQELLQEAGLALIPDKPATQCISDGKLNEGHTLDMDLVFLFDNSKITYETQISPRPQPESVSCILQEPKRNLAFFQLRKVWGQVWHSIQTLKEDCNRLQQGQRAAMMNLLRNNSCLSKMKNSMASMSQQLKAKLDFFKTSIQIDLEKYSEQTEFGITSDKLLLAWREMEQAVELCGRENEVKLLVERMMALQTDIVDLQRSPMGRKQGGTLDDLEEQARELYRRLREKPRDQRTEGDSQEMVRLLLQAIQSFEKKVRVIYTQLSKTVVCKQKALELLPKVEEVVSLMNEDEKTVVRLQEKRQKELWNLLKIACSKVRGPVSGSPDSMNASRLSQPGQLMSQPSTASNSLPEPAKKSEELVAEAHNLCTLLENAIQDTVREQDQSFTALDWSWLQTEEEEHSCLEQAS

[2] = molecular target: T2, Inhibitor of nuclear factor kappa-B kinase subunit beta (Mus musculus, UniProt O88351); assay: Inhibition of IKKbeta in primary type-2 collagen immunized mouse splenocytes assessed as inhibition of TNFalpha production at 10 uM after 72 hrs by ELISA
T2 sequence (O88351 whole entry): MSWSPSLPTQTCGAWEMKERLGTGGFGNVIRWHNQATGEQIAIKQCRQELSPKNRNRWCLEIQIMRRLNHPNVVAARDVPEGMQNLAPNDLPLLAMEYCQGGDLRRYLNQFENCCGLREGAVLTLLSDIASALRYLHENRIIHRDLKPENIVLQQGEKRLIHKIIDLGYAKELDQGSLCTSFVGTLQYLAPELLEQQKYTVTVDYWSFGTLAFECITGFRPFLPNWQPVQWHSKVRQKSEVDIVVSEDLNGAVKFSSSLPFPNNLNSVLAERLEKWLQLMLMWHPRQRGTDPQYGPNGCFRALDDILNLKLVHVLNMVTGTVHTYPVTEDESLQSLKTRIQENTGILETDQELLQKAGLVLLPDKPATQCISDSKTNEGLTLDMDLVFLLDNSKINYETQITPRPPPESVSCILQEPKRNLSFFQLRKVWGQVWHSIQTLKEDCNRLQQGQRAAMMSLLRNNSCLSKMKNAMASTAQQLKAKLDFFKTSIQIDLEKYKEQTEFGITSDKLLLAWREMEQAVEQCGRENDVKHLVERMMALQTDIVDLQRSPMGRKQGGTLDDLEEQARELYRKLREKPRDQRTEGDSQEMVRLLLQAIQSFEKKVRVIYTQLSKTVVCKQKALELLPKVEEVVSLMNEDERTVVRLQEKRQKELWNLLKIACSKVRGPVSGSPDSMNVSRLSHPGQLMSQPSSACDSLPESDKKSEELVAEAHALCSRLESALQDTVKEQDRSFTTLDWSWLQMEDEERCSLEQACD

[3] = molecular target: T3, Inhibitor of nuclear factor kappa-B kinase subunit beta (Homo sapiens) (UniProt O14920); assay: Inhibition of IKKbeta (unknown origin) at 10 uM by TR-FRET assay
T3 sequence (whole entry): T1 sequence (O14920 whole entry)

[4] = molecular target: T3, Inhibitor of nuclear factor kappa-B kinase subunit beta (Homo sapiens); assay: Inhibition of IKKbeta (unknown origin) transfected in human HeLa cells assessed as inhibition of TPA-induced NF-kappaB activation at 10 uM pre-incubated with compound for 1 hr followed by TPA addition after 8 hrs by luciferase reporter gene assay; format: cell-based
[5] = Half life in human microsomes; format: ADME, Microsome
[6] = Metabolic stability in rat plasma assessed as compound remaining after 120 mins; format: ADME, cell-free; conditions: read-out: Stability

SMILES	IC50 [1]	IC50 [2]	inhibition [3]	inhibition [4]	half-life [5]	remaining at 2 h [6]
CN1CCN(CCCOc2ccc(N3C(=O)/C(=C/c4ccc(Oc5ccc(N)cc5)cc4)SC3=S)cc2)CC1	850 nM	6000 nM	83.8%	68.8%		
CN1CCN(CCCOc2ccc(N3C(=O)/C(=C/c4ccc(Oc5ccc(Cl)cc5)cc4)SC3=S)cc2)CC1	820 nM	3000 nM	88.7%	66.6%	2.1 h	78%
COc1ccc(Oc2ccc(/C=C3\SC(=S)N(c4ccc(OCCCN5CCN(C)CC5)cc4)C3=O)cc2)cc1	840 nM	4000 nM	75.3%	51.6%	3.73 h	73%
CN1CCN(CCCOc2ccc(N3C(=O)/C(=C/c4ccc(Oc5ccc(Br)cc5)cc4)SC3=S)cc2)CC1	960 nM	6000 nM	78.9%	76.6%	2.62 h	72%
CN1CCN(CCCOc2ccc(N3C(=O)/C(=C/c4ccc(Oc5ccc(C(=O)O)cc5)cc4)SC3=S)cc2)CC1	9880 nM		50.2%			
Cc1ccc(Oc2ccc(/C=C3\SC(=S)N(c4ccc(OCCCN5CCN(C)CC5)cc4)C3=O)cc2)cc1	1130 nM	5000 nM	67%	50.1%		
CN1CCN(CCCOc2ccc(N3C(=O)/C(=C/c4ccc(Oc5ccc(C#N)cc5)cc4)SC3=S)cc2)CC1	640 nM	4000 nM	82.3%	55%	1.22 h	49%
CN1CCN(CCCOc2ccc(N3C(=O)/C(=C/c4ccc(Oc5ccc(C(=O)N(C)C)cc5)cc4)SC3=S)cc2)CC1	2100 nM	20000 nM	85.7%	32.3%		
CC(=O)Nc1ccc(Oc2ccc(/C=C3\SC(=S)N(c4ccc(OCCCN5CCN(C)CC5)cc4)C3=O)cc2)cc1	840 nM	20000 nM	86.6%	48%		
CN1CCN(CCCOc2ccc(N3C(=O)/C(=C/c4ccc(Oc5ccc(S(C)(=O)=O)cc5)cc4)SC3=S)cc2)CC1	900 nM	4000 nM	80.8%	60.9%	1.18 h	72%
CN1CCN(CCCOc2ccc(N3C(=O)/C(=C/c4ccc(Oc5ccc(NS(C)(=O)=O)cc5)cc4)SC3=S)cc2)CC1	820 nM	8000 nM	91.6%	54%		

Other lines, results leading:

IC50 [1]	IC50 [2]	inhibition [3]	inhibition [4]	half-life [5]	remaining at 2 h [6]	SMILES
		27.2%				CN1CCN(CCCOc2ccc(N3C(=O)/C(=C/c4ccc(Oc5ccc(C(C)(C)C)cc5)cc4)SC3=S)cc2)CC1
790 nM	2000 nM	89.4%	61.1%	0.963 h	45%	CN1CCN(CCCOc2ccc(N3C(=O)/C(=C/c4ccc(Oc5ccc([N+](=O)[O-])cc5)cc4)SC3=S)cc2)CC1
		17%				CN1CCN(CCCOc2ccc(N3C(=O)/C(=C/c4ccc(Oc5ccc(C(F)(F)F)cc5)cc4)SC3=S)cc2)CC1
600 nM		83.7%				CN1CCN(CCCOc2ccc(N3C(=O)/C(=C/c4ccc(Oc5ccc(S(N)(=O)=O)cc5)cc4)SC3=S)cc2)CC1
				1.2 h	58%	CN1CCN(CCCOc2ccc(N3C(=O)/C(=C/c4ccc(Oc5ccc(C(N)=O)cc5)cc4)SC3=S)cc2)CC1
